Data from patent US7205295B2, “Benzoxazin-3-ones and derivatives thereof as therapeutic agents” (Warner-Lambert Company LLC, priority 2002, dated 2007).

Target: T1, PI3Kγ (p101/p110γ protein) (Homo sapiens, UniProt P48736)
T1 construct: HA; made in house; host or cells: Spodoptera frugiperda (Sf9) cells, baculovirus co-infection
Assay: PI3Kγ In Vitro Kinase Assay
Type: biochemical
Conditions: purified recombinant p101/p110γ with G protein β1/γ2 subunits; 20 μM ATP, 25 μM PIP2; 20 minutes at room temperature
Procedure, shortened: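 Reactions ran 20 min at room temperature, pairing lipid micelles (25 μM PIP2, 300 μM PE, 0.02% Na-cholate, 10 mM MgCl2) with 20 μM ATP including [γ-32P]ATP. The enzyme was recombinant p101/p110γ (2.7 nM) with G protein β1/γ2 (57.7 nM). [32P]PIP3 product was stopped with H3PO4, filtered and scintillation counted.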

T1 sequence (P48736 whole entry, species assumed): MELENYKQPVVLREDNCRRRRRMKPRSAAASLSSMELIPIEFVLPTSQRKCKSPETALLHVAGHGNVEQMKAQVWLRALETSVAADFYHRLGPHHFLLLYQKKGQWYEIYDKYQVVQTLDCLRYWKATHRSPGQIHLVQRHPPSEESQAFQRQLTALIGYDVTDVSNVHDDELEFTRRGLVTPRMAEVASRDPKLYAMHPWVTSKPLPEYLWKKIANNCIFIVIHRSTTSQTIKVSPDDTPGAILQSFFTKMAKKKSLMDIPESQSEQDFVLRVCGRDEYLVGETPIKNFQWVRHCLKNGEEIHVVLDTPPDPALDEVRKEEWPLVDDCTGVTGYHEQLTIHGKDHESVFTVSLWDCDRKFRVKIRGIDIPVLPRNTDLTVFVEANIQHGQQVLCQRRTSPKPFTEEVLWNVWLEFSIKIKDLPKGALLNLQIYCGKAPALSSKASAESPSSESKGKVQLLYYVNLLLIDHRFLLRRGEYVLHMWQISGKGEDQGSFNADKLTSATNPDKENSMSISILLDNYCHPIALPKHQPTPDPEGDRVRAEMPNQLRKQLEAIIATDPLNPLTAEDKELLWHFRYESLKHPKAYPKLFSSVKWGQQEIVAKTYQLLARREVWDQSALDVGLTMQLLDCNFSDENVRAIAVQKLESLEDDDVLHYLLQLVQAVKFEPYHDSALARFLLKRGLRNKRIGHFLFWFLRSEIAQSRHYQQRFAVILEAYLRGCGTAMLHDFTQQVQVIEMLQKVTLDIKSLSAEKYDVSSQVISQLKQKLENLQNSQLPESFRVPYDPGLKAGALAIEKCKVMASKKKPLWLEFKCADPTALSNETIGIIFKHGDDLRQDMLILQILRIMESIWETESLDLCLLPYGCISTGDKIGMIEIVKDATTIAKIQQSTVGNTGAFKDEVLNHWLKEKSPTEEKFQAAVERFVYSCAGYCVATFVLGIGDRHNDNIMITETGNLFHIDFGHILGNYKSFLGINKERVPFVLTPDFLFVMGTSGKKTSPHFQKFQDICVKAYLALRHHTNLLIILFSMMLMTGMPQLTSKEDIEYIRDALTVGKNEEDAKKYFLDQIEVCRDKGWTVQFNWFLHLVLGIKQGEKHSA
T1 sequence (Q8WYR1 whole entry partner, species assumed): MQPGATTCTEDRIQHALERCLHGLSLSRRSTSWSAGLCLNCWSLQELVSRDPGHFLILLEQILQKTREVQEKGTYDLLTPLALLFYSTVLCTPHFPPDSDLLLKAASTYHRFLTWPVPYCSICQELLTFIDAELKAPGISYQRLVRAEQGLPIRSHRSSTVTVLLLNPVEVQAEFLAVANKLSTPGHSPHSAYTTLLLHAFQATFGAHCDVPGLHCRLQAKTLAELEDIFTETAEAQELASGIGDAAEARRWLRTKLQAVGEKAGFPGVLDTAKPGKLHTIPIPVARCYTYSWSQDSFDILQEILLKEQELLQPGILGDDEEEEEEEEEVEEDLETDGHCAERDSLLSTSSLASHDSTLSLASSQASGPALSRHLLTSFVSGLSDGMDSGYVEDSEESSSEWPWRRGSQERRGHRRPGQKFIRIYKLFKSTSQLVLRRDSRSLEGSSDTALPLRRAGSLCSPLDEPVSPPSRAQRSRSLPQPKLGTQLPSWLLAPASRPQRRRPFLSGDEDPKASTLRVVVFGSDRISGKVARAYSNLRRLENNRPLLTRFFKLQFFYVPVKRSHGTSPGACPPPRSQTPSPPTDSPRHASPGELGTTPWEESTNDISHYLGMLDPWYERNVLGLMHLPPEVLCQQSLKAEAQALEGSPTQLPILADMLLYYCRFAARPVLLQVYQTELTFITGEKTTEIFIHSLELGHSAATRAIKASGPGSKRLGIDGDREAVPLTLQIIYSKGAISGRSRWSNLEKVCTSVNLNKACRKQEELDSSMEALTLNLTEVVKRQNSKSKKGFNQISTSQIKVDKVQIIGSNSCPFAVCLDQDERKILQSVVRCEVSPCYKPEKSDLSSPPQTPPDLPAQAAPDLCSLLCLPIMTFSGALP

SMILES	IC50
O=C1NC(=S)S/C1=C\c1ccc2c(c1)N(Cc1ccc(C(=O)O)cc1)C(=O)CO2 [Example 288, 4-{3-oxo-6-[4-oxo-2-thioxo-thiazolidin-(5Z)-ylidenemethyl]-2,3-dihydro-benzo[1,4]oxazin-4-ylmethyl}-benzoic acid; Compound with ethane-1,2-diamine]	0.035 µM
CC(C)(C)c1cc(CN2C(=O)COc3ccc(C=C4SC(=S)NC4=O)cc32)cc(C(C)(C)O)c1 [Example 237, 4-[3-tert-Butyl-5(1-hydroxy-1-methyl-ethyl)-benzyl]-6-(4-oxo-2-thioxo-thazolidin-5-ylmethyl)-4H-benzo[1,4]oxazin-3-one]	0.006 µM
Cc1cc(C)cc(CN2C(=O)COc3ccc(C=C4SC(=S)NC4=O)cc32)c1 [Example 150, 4-(3,5-Dimethyl-benzyl)-6-(4-oxo-2-thioxo-thiazolidin-5-ylidenemethyl)-4H-benzo[1,4]oxazin-3-one]	0.005 µM
CN1CCN(Cc2cccc(CN3C(=O)COc4ccc(C=C5SC(=S)NC5=O)cc43)c2)CC1 [Example 48, 4-[3-(4-Methyl-piperazin-1-ylmethyl)-benzyl]-6-(4-oxo-2-thioxo-thiazolidin-5-ylidenemethyl)-4H-1,4-benzoxazin-3-one]	0.042 µM
O=C1NC(=S)SC1=Cc1ccc2c(c1)N(Cc1cc(OS(=O)(=O)C(F)(F)F)cc(OS(=O)(=O)C(F)(F)F)c1)C(=O)CO2 [Example 44, Trifluoro-methanesulfonic acid 3-[3-oxo-6-(4-oxo-2-thioxo-thiazolidin-5-ylidenemethyl)-2,3-dihydro-1,4-benzoxazin-4-ylmethyl]-5-trifluoromethanesulfonyloxy-phenyl ester]	0.265 µM
O=C1NC(=S)SC1=Cc1ccc2c(c1)N(Cc1cccc(OCc3ccccc3)c1)C(=O)CO2 [Example 15, 4-(3-Benzyloxy-benzyl)-6-(4-oxo-2-thioxo-thiazolidin-5-ylidenemethyl)-4H-1,4-benzoxazin-3-one]	0.013 µM
Cc1cc(C)cc(CCN2C(=O)COc3ccc(C=C4SC(=S)NC4=O)cc32)c1 [Example 30, 4-[2-(3,5-Dimethylphenyl)-ethyl]-6-(4-oxo-2-thioxo-thiazolidin-5-ylidenemethyl)-4H-1,4-benzoxazin-3-one]	0.002 µM
O=C1COc2c(Cl)cc(C=C3SC(=S)NC3=O)cc2N1 [Example 49, 8-Chloro-6-(4-oxo-2-thioxo-thiazolidin-5-ylidenemethyl)-4H-1,4-benzoxazin-3-one]	0.061 µM
COC(=O)c1nc(CN2C(=O)COc3ccc(C=C4SC(=S)NC4=O)cc32)ncc1OC [Example 231, 5-Methoxy-2-[3-oxo-6-(4-oxo-2-thioxo-thiazolidin-5-ylidenemethyl)-2,3-dihydro-1,4-benzoxazin-4-ylmethyl]-pyrimidine-4-carboxylic acid methyl ester]	0.05 µM
CC(c1cc(C(C)(C)C)cc(C(C)(C)C)c1)N1C(=O)COc2ccc(C=C3SC(=S)NC3=O)cc21 (stereo not drawn) [Example 62, 4-[1-(3,5-Di-tert-butyl-phenyl)-ethyl]-6-(4-oxo-2-thioxo-thiazolidin-5-ylidenemethyl)-4H-1,4-benzoxazin-3-one]	0.85 µM
CCN(CC)Cc1ccc(CN2C(=O)COc3ccc(C=C4SC(=S)NC4=O)cc32)cc1 [Example 21, 4-(4-Diethylaminomethyl-benzyl)-6-(4-oxo-2-thioxo-thiazolidin-5-ylidenemethyl)-4H-1,4-benzoxazin-3-one]	0.014 µM
COc1ccc(CCCN2C(=O)COc3ccc(C=C4SC(=O)NC4=O)cc32)cc1 [Example 123, 5-{4-[3-(4-Methoxy-phenyl)-propyl]-3-oxo-3,4-dihydro-2H-benzo[1,4]oxazin-6-ylmethylene}-thiazolidine-2,4-dione]	0.007 µM
Cc1cc(CN2C(=O)COc3ccc(C=C4SC(=S)NC4=O)cc32)cc(C(C)(C)C)c1 [Example 211, 4-(3-tert-Butyl-5-methyl-benzyl)-6-(4-oxo-2-thioxo-thiazolidin-5-ylidenemethyl)-4H-1,4-benzoxazin-3-one]	0.017 µM
O=C1NC(=S)SC1=Cc1ccc2c(c1)N(Cc1ccc(-c3ccccc3)cc1)C(=O)CO2 [Example 9, 4-Biphenyl-4-ylmethyl-6-(4-oxo-2-thioxo-thiazolidin-5-ylidenemethyl)-4H-1,4-benzoxazin-3-one]	0.061 µM
CC(=O)OCc1cc(CN2C(=O)COc3ccc(C=C4SC(=S)NC4=O)cc32)cc(C(C)(C)C)c1 [Example 70, Acetic acid 3-tert-butyl-5-[3-oxo-6-(4-oxo-2-thioxo-thiazolidin-5-ylidenemethyl)-2,3-dihydro-1,4-benzoxazin-4-ylmethyl]-benzyl ester]	0.012 µM
O=C1NC(=O)C(=Cc2ccc3c(c2)N(Cc2ccc(CN4CCC5(CCCCC5)CC4)cc2)C(=O)CO3)S1 [Example 239, 5-{4-[4-(3-Aza-spiro[5.5]undec-3-ylmethyl)-benzyl]-3-oxo-3,4-dihydro-2H-benzo[1,4]oxazin-6-ylmethylene}-thiazolidine-2,4-dione]	0.039 µM
CC(C)CCN1C(=O)COc2ccc(C=C3SC(=S)NC3=O)cc21 [Example 144, 4-(3-Methyl-butyl)-6-(4-oxo-2-thioxo-thiazolidin-5-ylidenemethyl)-4H-benzo[1,4]oxazin-3-one]	0.024 µM

SMILES	IC50
COc1ccc(CN2C(=O)COc3c(F)cc(C=C4SC(=S)NC4=O)cc32)cc1C(F)(F)F [Example 299, 8-Fluoro-4-(4-methoxy-3-trifluoromethyl-benzyl)-6-(4-oxo-2-thioxo-thiazolidin-5-ylidenemethyl)-4H-benzo[1,4]oxazin-3-one]	0.006 µM
O=C1NC(=S)SC1=Cc1ccc2c(c1)N(Cc1ccc(CN3CCCCC3)cc1)C(=O)CO2 [Example 19, 4-(4-Piperidin-1-ylmethyl-benzyl)-6-(4-oxo-2-thioxo-thiazolidin-5-ylidenemethyl)-4H-1,4-benzoxazin-3-one]	0.008 µM
COc1cc(CN2C(=O)COc3ccc(C=C4SC(=S)NC4=O)cc32)cc(OC)n1 [Example 206, 4-(2,6-Dimethoxy-pyridin-4-ylmethyl)-6-(4-oxo-2-thioxo-thiazolidin-5-ylidenemethyl)-4H-benzo[1,4]oxazine-3-one]	0.06 µM
O=C1COc2ccc(C=C3OC(=S)NC3=O)cc2N1 [Example 84, 6-(4-Oxo-2-thioxo-oxazolidin-5-ylidenemethyl)-4H-benzo[1,4]oxazin-3-one]	0.06 µM
O=C1NC(=S)SC1=Cc1ccc2c(c1)N(Cc1ccc(SC(F)(F)F)cc1)C(=O)CO2 [Example 168, 6-(4-Oxo-2-thioxo-thiazolidin-5-ylidenemethyl)-4-(4-trifluoromethylsulfanyl-benzyl)-4H-1,4-benzoxazin-3-one]	0.012 µM
O=C1NC(=S)SC1=Cc1ccc2c(c1)N(Cc1cccc(C(=O)O)c1)C(=O)CO2 [Example 17, 3-[3-Oxo-6-(4-oxo-2-thioxo-thiazolidin-5-ylidenemethyl)-2,3-dihydro-1,4-benzoxazin-4-ylmethyl]-benzoic acid]	0.009 µM
CCN(CC)Cc1ccc(CN2C(=O)COc3c(Cl)cc(C=C4SC(=S)NC4=O)cc32)cc1 [Example 78, 8-Chloro-4-(4-diethylaminomethyl-benzyl)-6-(4-oxo-2-thioxo-thiazolidin-5-ylidenemethyl)-4H-1,4-benzoxazin-3-one]	0.057 µM
CC(C)S(=O)(=O)c1cccc(CN2C(=O)COc3ccc(C=C4SC(=S)NC4=O)cc32)c1 [Example 253, 6-(4-Oxo-2-thioxo-thiazolidin-5-ylidenemethyl)-4-[3-(propane-2-sulfonyl)-benzyl]-4H-1,4-benzoxazin-3-one]	0.016 µM
O=C1NC(=S)SC1=Cc1ccc2c(c1)N(Cc1ccc(F)c(F)c1)C(=O)CO2 [Example 312, 4-(3,4-Difluoro-benzyl)-6-(4-oxo-2-thioxo-thiazolidin-5-ylidenemethyl)-4H-1,4-benzoxazin-3-one]	0.003 µM
CC(C)n1cnc2cc(CN3C(=O)COc4ccc(C=C5SC(=S)NC5=O)cc43)ccc21 [Example 335, 4-(1-Isopropyl-1H-benzimidazol-5-ylmethyl)-6-(4-oxo-2-thioxo-thiazolidin-5-ylidenemethyl)-4H-1,4-benzoxazin-3-one]	0.034 µM
O=C1COc2ncc(C=C3SC(=S)NC3=O)cc2N1 [Example 195, 7-(4-Oxo-2-thioxo-thiazolidin-5-ylidenemethyl)-1H-pyrido[2,3-b][1,4]oxazin-2-one]	1.91 µM
Cc1cc(CN2C(=O)COc3ccc(C=C4SC(=S)NC4=O)cc32)cc(-c2ccsc2)c1 [Example 116, 4-(3-Methyl-5-thiophene-3-yl-benzyl)-6-(4-oxo-2-thioxo-thiazolidin-5-ylidenemethyl)-4H-benzo[1,4]oxazin-3-one]	0.024 µM
C/C(=C1/SC(=S)NC1=O)c1ccc2c(c1)N(Cc1ccccc1)C(=O)CO2 [Example 266, 4-Benzyl-6-{1-[4-oxo-2-thioxo-thiazolidin-(5Z)-ylidene]-ethyl}-4H-benzo[1,4]oxazin-3-one]	1.61 µM
CS(=O)(=O)c1cccc(CN2C(=O)COc3c(F)cc(C=C4SC(=S)NC4=O)cc32)c1 [Example 269, 8-Fluoro-4-(3-methanesulfonyl-benzyl)-6-(4-oxo-2-thioxo-thiazolidin-5-ylidenemethyl)-4H-benzo[1,4]oxazin-3-one]	0.014 µM
O=C1NC(=S)SC1=Cc1ccc2c(c1)N(Cc1cccnc1)C(=O)CO2 [Example 12, 6-(4-Oxo-2-thioxo-thiazolidin-5-ylidenemethyl)-4-pyridin-3-ylmethyl-4H-1,4-benzoxazin-3-one]	0.027 µM
COc1cc(C=C2SC(=S)NC2=O)cc2c1OCC(=O)N2 [Example 6, 8-Methoxy-6-(4-oxo-2-thioxo-thiazolidin-5-ylidenemethyl)-4H-1,4-benzoxazin-3-one]	0.56 µM
